Reference: ChEMBL document CHEMBL5543086, “Discovery of novel NSAID hybrids as cPLA2/COX-2 dual inhibitors alleviating rheumatoid arthritis via inhibiting p38 MAPK pathway” (Eur J Med Chem, 2024)
Calls of active or inactive are those of the source. No cut-off for these calls is given here.

How the values were obtained:
[1] = Toxicity in male Wistar rat assessed as gastrointestinal damage by measuring level-1 ulcers with <1 mm area at 100 mg/kg administered by gavage and measured after 6 hrs; format: organism-based; settings: in vivo, po
Rattus norvegicus [2] = experiment: Antiarthritic activity in Freund's complete adjuvant induced Lewis rat model of arthritis assessed as reduction in joint deformities at 20 mg/kg, po administered every 24 to 48 hrs for 28 days post immunization starting from day 8 post immunization; format: functional, organism-based; settings: time 21.0 day
RAW264.7 [3] = experiment: Antiinflammatory activity in LPS-induced mouse RAW264.7 cells assessed as inhibition of NO production at 10 uM pretreated for 1 hr followed by LPS stimulation and measured over 48 hrs by griess reagent based assay; format: functional, cell-based; settings: time > 49.0 hrs
Rattus norvegicus [4] = experiment: Immunomodulatory activity in Freund's complete adjuvant induced Lewis rat model of arthritis assessed as decrease in anti-IL-17 antibody expression in knee joint slices at 20 mg/kg, po administered every 24 to 48 hrs for 28 days post immunization starting from day 8 post immunization by immunohistochemistry analysis; format: functional, organism-based; settings: time 21.0 day
Rattus norvegicus [5] = experiment: Antiarthritic activity in Freund's complete adjuvant induced Lewis rat model of arthritis assessed as inhibition of left hind paw edema at 20 mg/kg, po administered every 24 to 48 hrs for 28 days post immunization starting from day 8 post immunization; format: functional, organism-based; settings: time 21.0 day
[6] = Toxicity in male Wistar rat assessed as gastrointestinal damage by measuring level-3 ulcers with >3 mm area at 50 mg/kg administered by gavage and measured after 6 hrs; format: organism-based; settings: in vivo, po
Rattus norvegicus [7] = experiment: Immunomodulatory activity in Freund's complete adjuvant induced Lewis rat model of arthritis assessed as increase in IL-10 level in serum at 20 mg/kg, po administered every 24 to 48 hrs for 28 days post immunization starting from day 8 post immunization by ELISA; format: functional, organism-based; settings: time 21.0 day
RAW264.7 [8] = experiment: Antiinflammatory activity against LPS-induced mouse RAW264.7 cells assessed as inhibition of COX-2 protein expression pretreated for 1 hr followed by LPS stimulation and measured after 24 hrs by Western blot analysis; format: functional, cell-based; settings: dose 2.5-10 µM, time 25.0 hrs
Rattus norvegicus [9] = experiment: (§1) Antiarthritic activity in Freund's complete adjuvant induced Lewis rat model of arthritis assessed as reduction in joint tissue damage by measuring reduction in synovial hyperplasia at 20 mg/kg, po administered every 24 hrs for 28 days post immunization starting from day 8 post immunization by H and E staining based analysis; format: functional, organism-based; settings: time 21.0 day
Rattus norvegicus [10] = experiment: Immunomodulatory activity in Freund's complete adjuvant induced Lewis rat model of arthritis assessed as reduction in IL-17 level in serum at 20 mg/kg, po administered every 24 to 48 hrs for 28 days post immunization starting from day 8 post immunization by ELISA; format: functional, organism-based; settings: time 21.0 day
Rattus norvegicus [11] = experiment: Antiarthritic activity in Freund's complete adjuvant induced Lewis rat model of arthritis assessed as reduction in arthritis score at 20 mg/kg, po administered every 24 to 48 hrs for 28 days post immunization starting from day 8 post immunization; format: functional, organism-based; settings: time 21.0 day
[12] = Toxicity in male Wistar rat assessed as gastrointestinal damage by measuring number of ulcers at 50 mg/kg administered by gavage and measured after 6 hrs (reference value: 0); format: organism-based; settings: in vivo, po
[13] = Hepatotoxicity in male Wistar rat assessed as effect on glutamic oxalacetic transaminase level at 20 mg/kg, po administered for 3 days; format: toxicity, organism-based; settings: in vivo, 72 h, time 3 day
Mus musculus = organism: Mus musculus; experiment: Analgesic activity in mouse model assessed as reduction in acetic acid induced inflammatory pain; format: functional, organism-based
Rattus norvegicus [14] = experiment: Antiarthritic activity in Freund's complete adjuvant induced Lewis rat model of arthritis assessed as reduction in joint deformities induced walking and polyarthritis symptoms at 20 mg/kg, po administered every 24 to 48 hrs for 28 days post immunization starting from day 8 post immunization; format: functional, organism-based; settings: time 21.0 day
[15] = Nephrotoxicity in male Wistar rat assessed as effect on blood urea nitrogen level at 20 mg/kg, po administered for 3 days; format: toxicity, organism-based; settings: in vivo, 72 h, time 3 day
[16] = Toxicity in male Wistar rat assessed as gastrointestinal damage by measuring ulcer index at 50 mg/kg administered by gavage and measured after 6 hrs; format: organism-based; settings: in vivo, po
Rattus norvegicus [17] = experiment: as §1, with “cartilage degeneration” for “synovial hyperplasia”; format: functional, organism-based; settings: time 21.0 day
RAW264.7 [18] = experiment: Antiinflammatory activity against LPS-induced mouse RAW264.7 cells assessed as inhibition of cPLA2 protein expression pretreated for 1 hr followed by LPS stimulation and measured after 24 hrs by Western blot analysis; format: functional, cell-based; settings: dose 2.5-10 µM, time 25.0 hrs
[19] = target: T1, Cytosolic phospholipase A2 (Mus musculus) (UniProt P47713); experiment: Binding affinity to cPLA2 in LPS-induced mouse RAW264.7 cells assessed as thermal stability at 45 to 53 degreeC at 30 uM pretreated with LPS for 24 hrs followed by compound addition and measured after 2 hrs by CETSA; format: cell-based
T1 sequence (whole entry): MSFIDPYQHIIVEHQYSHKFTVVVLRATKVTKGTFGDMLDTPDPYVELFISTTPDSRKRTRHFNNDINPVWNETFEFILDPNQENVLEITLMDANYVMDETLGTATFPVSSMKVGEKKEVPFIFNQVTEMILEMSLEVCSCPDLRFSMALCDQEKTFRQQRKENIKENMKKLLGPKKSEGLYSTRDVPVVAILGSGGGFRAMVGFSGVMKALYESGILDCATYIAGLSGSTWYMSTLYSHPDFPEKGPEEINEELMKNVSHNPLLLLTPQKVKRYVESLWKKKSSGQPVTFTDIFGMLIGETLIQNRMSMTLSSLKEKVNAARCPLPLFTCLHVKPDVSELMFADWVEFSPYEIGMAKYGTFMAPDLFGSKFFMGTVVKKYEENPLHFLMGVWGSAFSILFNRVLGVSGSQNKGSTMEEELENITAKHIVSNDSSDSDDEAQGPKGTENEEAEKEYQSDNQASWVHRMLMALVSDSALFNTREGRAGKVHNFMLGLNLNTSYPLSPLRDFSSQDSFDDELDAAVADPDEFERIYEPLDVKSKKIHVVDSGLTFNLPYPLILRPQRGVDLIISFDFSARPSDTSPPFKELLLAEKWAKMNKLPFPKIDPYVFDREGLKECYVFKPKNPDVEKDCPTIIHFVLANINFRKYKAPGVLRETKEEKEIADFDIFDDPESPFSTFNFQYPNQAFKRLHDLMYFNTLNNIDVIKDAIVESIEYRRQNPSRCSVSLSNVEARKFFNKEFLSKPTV

RAW264.7 [20] = experiment: Antiinflammatory activity in LPS-induced mouse RAW264.7 cells assessed as inhibition of PGE2 production at 10 uM pretreated for 1 hr followed by LPS stimulation and measured after 24 to 48 hrs by ELISA; format: functional, cell-based; settings: time 25-49 hrs
[21] = Toxicity in male Wistar rat assessed as gastrointestinal damage by measuring level-2 ulcers with 1 to 3 mm area at 50 mg/kg administered by gavage and measured after 6 hrs; format: organism-based; settings: in vivo, po

In the case of CCCCC/C=C\C/C=C\C/C=C\C/C=C\CC/C=C(/OC(=O)C(C)c1ccc(C(=O)c2ccccc2)cc1)C(F)(F)F (configuration not stated), the Activity [1] is reported as 86%, the Activity (Rattus norvegicus [2]) is reported as “Active” and the Activity (RAW264.7 [3]) is reported as “Active”. For the same compound, the Activity (Rattus norvegicus [4]) was “Active”, the Activity (Rattus norvegicus [5]) was “Active” and the Activity [6] was 0%. The Activity (Rattus norvegicus [7]) was “Active”, the Activity (RAW264.7 [8]) was “Dose-Dependent Effect” and the Activity (Rattus norvegicus [9]) was “Active”. For the same compound, the Activity (Rattus norvegicus [10]) was “Active”, the Activity (Rattus norvegicus [11]) was “Active” and the Activity [12] was 0. The Activity [13] was “Non-Toxic”, the Activity (Mus musculus) was “Active” and the Activity (Rattus norvegicus [14]) was “Active”. The Activity [15] was “Non-Toxic”, the UI [16] was 0 and the Activity (Rattus norvegicus [17]) was “Active”. The Activity (RAW264.7 [18]) was “Dose-Dependent Effect”, the Activity [19] was “Active” and the Activity (RAW264.7 [20]) was “Active”. The Activity [21] was 0%.
